From US11179399B2, “6-heterocyclyl-4-morpholin-4-ylpyridine-2-one compounds useful for the treatment of cancer and diabetes” (Sprint Bioscience AB, priority 2016, dated 2021)
Where two headings read alike, the source gives them in different places.

Columns and labels:
Vps34 enzyme = Vps34 enzyme (Homo sapiens (Human), UniProt Q8NEB9); experiment: Vps34 biochemical assay (Adapta kinase assay); details: 20 μM ATP and 200 μM PI:PS in substrate mix, 1 h at room temperature, read-out: Median IC50 uM Adapta
Experimental: Dilution series of compounds of the invention were prepared in DMSO at 100 times the final assay concentration (n1=n0/3 in 10 points). The compounds were further diluted to 4 times the assay concentration in assay buffer (Life technologies buffer Q, PV5125, diluted 5 times supplemented with 2 mM DTT and 2 mM MnCl2). 2.5 μl of the diluted compounds were added to a 384 well assay plate followed by 2.5 μl of 16.5 nM Vps34 enzyme (Life technologies, PV5126). Enzyme and compounds were pre-incubated at rt for 15 min. Then 5 μl of substrate mix containing 20 μM ATP (Life technologies, PV3227) and 200 μM PI:PS substrate (Life technologies, PV5122) in assay buffer was added to the wells containing compound and enzyme. Mixing was performed by pipetting several times. The reaction was incubated at room temperature for 1 h. Then 5 μl stop-detection mix, prepared as described in the Adapta kinase assay kit instructions (Life technologies, PV5099) containing Adapta Eu-anti-ADP antibody (2.3 nM), Alexa Fluor 647 ADP tracer (9 nM) and EDTA (30 mM) in TR-FRET buffer, was added to quench the reaction. Mixing was performed by pipetting several times. The assay plate was then incubated at room temperature for 30 min and read with Artemis micro plate reader. Percent inhibition of the compounds as compared to DMSO treated control samples was calculated. By the use of Dotmatics software compound concentration versus percent inhibition was fitted to generate IC50 values.

[1] = system: autophagy in HOS cells (GFP-LC3); experiment: High content screening autophagy assay (GFP-LC3 foci); format: cell-based, Human; details: foci area per cell, read-out: Median IC50 (uM) Cellular assay
Experimental: Human osteosarcoma cells (HOS) stably expressing a Green Fluorescent Protein (GFP) tagged LC3 (GFP-LC3) were used to determine the inhibitory effect on autophagy of proprietary compounds. For that purpose, autophagy was activated by using the mTOR inhibitor KU-0063794 at 500 nM in the presence of Bafilomycin A1 (Sigma-Aldrich) at 5 nM. Shortly, cells were plated overnight in clear bottom 96-well plates in DMEM-High Modified media (Hi-Clone Cat #SH30285.01). At the start of the experiment, the media was removed and replaced with fresh media containing the mTOR inhibitor, Bafilomycin A1 and the vehicle or a test compound as indicated. After 6 hours the media was removed, cells were washed twice with ice-cold phosphate buffered saline (PBS) and fixed with 4% paraformaldehyde for 20 minutes at room temperature. Then the cells were washed twice with ice-cold PBS before adding Hoechst 33342 at 1 μg/ml in PBS for nuclear staining. After incubation overnight at 4° C., cells were washed once with PBS to remove the excess of dye and 100 μl of PBS was added to each well. Images were acquired at 20× magnification, 6 images per well, using the ImageXpress automated microscope (Molecular Devices Inc.) and analyzed with MetaXpress software to identify LC3-GFP foci. Foci area per cell values were used to generate dose response curves and IC50 values were calculated using the non-linear fitting analysis in GraphPad Prism software.

[2] = Homo sapiens, HOS, 6 h, HOS cells with GFP-LC3, autophagy activated by KU-0063794 500 nM with Bafilomycin A1 5 nM

Vps34 enzyme, sequence (Q8NEB9 whole entry): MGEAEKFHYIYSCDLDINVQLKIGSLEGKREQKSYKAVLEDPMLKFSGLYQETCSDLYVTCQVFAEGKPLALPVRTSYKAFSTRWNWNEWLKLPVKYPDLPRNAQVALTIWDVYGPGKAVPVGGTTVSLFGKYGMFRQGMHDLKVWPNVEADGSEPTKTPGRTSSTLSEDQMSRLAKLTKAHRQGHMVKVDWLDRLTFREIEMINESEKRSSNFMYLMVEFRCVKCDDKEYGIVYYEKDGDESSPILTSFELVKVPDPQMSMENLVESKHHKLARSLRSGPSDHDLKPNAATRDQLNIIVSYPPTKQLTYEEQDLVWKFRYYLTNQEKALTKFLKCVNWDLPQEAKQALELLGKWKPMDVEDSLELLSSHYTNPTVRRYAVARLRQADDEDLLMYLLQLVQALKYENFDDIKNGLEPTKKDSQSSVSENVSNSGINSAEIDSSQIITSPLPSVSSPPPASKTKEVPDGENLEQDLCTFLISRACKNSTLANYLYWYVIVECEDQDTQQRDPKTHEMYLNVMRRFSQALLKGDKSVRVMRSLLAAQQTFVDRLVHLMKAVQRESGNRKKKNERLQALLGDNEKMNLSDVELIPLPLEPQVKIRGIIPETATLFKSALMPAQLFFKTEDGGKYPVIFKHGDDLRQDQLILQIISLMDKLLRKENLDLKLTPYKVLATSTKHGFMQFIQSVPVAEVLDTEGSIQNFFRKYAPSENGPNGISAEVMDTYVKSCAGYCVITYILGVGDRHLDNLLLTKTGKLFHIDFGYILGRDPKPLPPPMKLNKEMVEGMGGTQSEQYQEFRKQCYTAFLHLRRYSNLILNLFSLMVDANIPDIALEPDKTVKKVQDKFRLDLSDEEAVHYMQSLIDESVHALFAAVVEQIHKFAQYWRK

IC50 (Vps34 enzyme) [µM] | IC50 [1, 2] [µM] | IC50 ([1]; HOS cells with GFP-LC3, autophagy activated by KU-0063794 500 nM with Bafilomycin A1 5 nM, 6 hours) [µM] | Structure (SMILES)
0.02 | 2 |  | C[C@@H]1COCCN1c1cc(N2CCCC2c2cccc(F)c2)[nH]c(=O)c1 (mixture of isomers) [Example 13, (R) and (S) 6-[2-(3-fluorophenyl)pyrrolidin-1-yl]-4-[(3R)-3-methylmorpholin-4-yl]-1H-pyridin-2-one]
0.04 | 0.3 |  | C[C@@H]1COCCN1c1cc(N2CCCC2c2cccc(C(F)(F)F)c2)[nH]c(=O)c1 (mixture of isomers) [Example 16, (R) and (S) 4-[(3R)-3-methylmorpholin-4-yl]-6-[2-[3-(trifluoromethyl)phenyl]pyrrolidin-1-yl]-1H-pyridin-2-one]
0.01 | 0.1 |  | COc1cccc(C2CCCN2c2cc(N3CCOC[C@H]3C)cc(=O)[nH]2)c1 (mixture of isomers) [Example 17, (R) and (S) 6-[2-(3-methoxyphenyl)pyrrolidin-1-yl]-4-[(3R)-3-methylmorpholin-4-yl]-1H-pyridin-2-one]
0.004 | 0.02 |  | C[C@@H]1COCCN1c1cc(N2CCCCC2C(F)(F)F)[nH]c(=O)c1 (mixture of isomers) [Example 25, (R) and (S) 4-[(3R)-3-methylmorpholin-4-yl]-6-[2-(trifluoromethyl)-1-piperidyl]-1H-pyridin-2-one]
0.02 | 0.03 |  | C[C@@H]1COCCN1c1cc(N2CCCC2c2cccc(Cl)c2)[nH]c(=O)c1 (mixture of isomers) [Example 36, (R) and (S) 6-[2-(3-chlorophenyl)pyrrolidin-1-yl]-4-[(3R)-3-methylmorpholin-4-yl]-1H-pyridin-2-one]
0.006 | 0.3 |  | COc1cccc(C2CCCN2c2cc(N3CCOC[C@H]3C)cc(=O)[nH]2)c1 (single isomer, unassigned) [Example 17_2]
0.02 | 1 |  | C[C@@H]1COCCN1c1cc(N2CCCC2c2ccccc2)[nH]c(=O)c1 (single isomer, unassigned) [Example 18_2]
0.01 | 1.4 |  | CC1COCCN1c1cc(N2CCOC[C@H]2C)cc(=O)[nH]1 (single isomer, unassigned) [Example 24_1]
0.002 | 0.03 |  | C[C@@H]1COCCN1c1cc(N2CCCCC2C(F)(F)F)[nH]c(=O)c1 (single isomer, unassigned) [Example 25_1]
0.04 | 0.2 |  | C[C@@H]1COCCN1c1cc(N2CCOCC2c2ccccc2)[nH]c(=O)c1 (single isomer, unassigned) [Example 26_1]
0.01 | 0.4 |  | C[C@@H]1COCCN1c1cc(N2CCCC2c2cccc(Cl)c2)[nH]c(=O)c1 (single isomer, unassigned) [Example 36_1]
0.02 |  | 0.7 | C[C@@H]1COCCN1c1cc(N2CCCC2c2cccc(Cl)c2)[nH]c(=O)c1 (single isomer, unassigned) [Example 36_2]
0.003 | 0.03 |  | C[C@@H]1COCCN1c1cc(N2CCOCC2C(F)(F)F)[nH]c(=O)c1 (single isomer, unassigned) [Example 43_1]
0.001 | 0.2 |  | COc1cccc(C2CCCCN2c2cc(N3CCOC[C@H]3C)cc(=O)[nH]2)c1 (single isomer, unassigned) [Example 44_1]
0.01 |  |  | C[C@@H]1COCCN1c1cc(N2CCN(C(=O)C3CCCO3)CC2C(F)(F)F)[nH]c(=O)c1 (single isomer, unassigned) [Example 48_1]
0.02 |  |  | C[C@@H]1COCCN1c1cc(N2CCN(C(=O)C3CCCO3)CC2C(F)(F)F)[nH]c(=O)c1 (single isomer, unassigned) [Example 48_2]
0.05 | 5 |  | O=c1cc(N2CCOCC2)cc(N2CCCC2c2ccccc2)[nH]1 (stereo not shown) [Example 1, 4-morpholino-6-(2-phenylpyrrolidin-1-yl)-1H-pyridin-2-one]

IC50 (Vps34 enzyme) [µM] | IC50 [1, 2] [µM] | IC50 ([1]; HOS cells with GFP-LC3, autophagy activated by KU-0063794 500 nM with Bafilomycin A1 5 nM, 6 hours) [µM] | Structure (SMILES)
0.1 |  |  | Cn1c(N2CCCC2c2ccccc2)cc(N2CCOCC2)cc1=O (stereo not shown) [Example 2, 1-methyl-4-morpholino-6-(2-phenylpyrrolidin-1-yl)pyridin-2-one]
0.2 | 13 |  | O=c1cc(N2CCOCC2)cc(N2CCC[C@H]2c2ccccc2)[nH]1 [Example 3, 4-morpholino-6-[(2S)-2-phenylpyrrolidin-1-yl]-1H-pyridin-2-one]
0.05 | 9 |  | O=c1cc(N2CCOCC2)cc(N2CCC[C@@H]2c2ccccc2)[nH]1 [Example 4, 4-morpholino-6-[(2R)-2-phenylpyrrolidin-1-yl]-1H-pyridin-2-one]
0.2 | 15 |  | CC1COCCN1c1cc(C2=CCOCC2)[nH]c(=O)c1 (stereo not shown) [Example 5, 6-(3,6-dihydro-2H-pyran-4-yl)-4-(3-methylmorpholin-4-yl)-1H-pyridin-2-one]
0.2 | 5 |  | CC1COCCN1c1cc(C2CCOCC2)[nH]c(=O)c1 (stereo not shown) [Example 6, 4-(3-methylmorpholin-4-yl)-6-tetrahydropyran-4-yl-1H-pyridin-2-one]
0.004 | 0.5 |  | COc1cccc(C2CCCN2c2cc(N3CCOCC3C)cc(=O)[nH]2)c1 (stereo not shown) [Example 7, 6-[2-(3-methoxyphenyl)pyrrolidin-1-yl]-4-(3-methylmorpholin-4-yl)-1H-pyridin-2-one]
0.05 | 10 |  | CC1COCCN1c1cc(N2CCCC2c2cccnc2)[nH]c(=O)c1 (stereo not shown) [Example 8, 4-(3-methylmorpholin-4-yl)-6-[2-(3-pyridyl)pyrrolidin-1-yl]-1H-pyridin-2-one]
0.4 |  |  | C[C@@H]1COCCN1c1cc(N2CCCC2C(=O)N(C)C)[nH]c(=O)c1 (stereo partly drawn) [Example 10, N,N-dimethyl-1-[4-[(3R)-3-methylmorpholin-4-yl]-6-oxo-1H-pyridin-2-yl]pyrrolidine-2-carboxamide]
0.4 |  |  | C[C@@H]1COCCN1c1cc(N2CC[S+]([O-])CC2)[nH]c(=O)c1 [Example 27, 4-[(3R)-3-methylmorpholin-4-yl]-6-(1-oxo-1,4-thiazinan-4-yl)-1H-pyridin-2-one]
0.4 |  |  | C[C@@H]1COCCN1c1cc(N2CCS(=O)(=O)CC2)[nH]c(=O)c1 [Example 28, 6-(1,1-dioxo-1,4-thiazinan-4-yl)-4-[(3R)-3-methylmorpholin-4-yl]-1H-pyridin-2-one]
0.2 |  |  | CC(=O)N1CCN(c2cc(N3CCOC[C@H]3C)cc(=O)[nH]2)CC1 [Example 29, 6-(4-acetylpiperazin-1-yl)-4-[(3R)-3-methylmorpholin-4-yl]-1H-pyridin-2-one]
0.3 |  |  | C[C@@H]1COCCN1c1cc(N2CCN(C)CC2c2ccccc2)[nH]c(=O)c1 (stereo partly drawn) [Example 31, 4-[(3R)-3-methylmorpholin-4-yl]-6-(4-methyl-2-phenyl-piperazin-1-yl)-1H-pyridin-2-one]
0.03 |  |  | C[C@@H]1COCCN1c1cc(N2CCOCC2C2CC2)[nH]c(=O)c1 (stereo partly drawn) [Example 33, 6-(3-cyclopropylmorpholin-4-yl)-4-[(3R)-3-methylmorpholin-4-yl]-1H-pyridin-2-one]
0.1 |  |  | C[C@@H]1COCCN1c1cc(N2CCC[C@H]2C(F)(F)F)[nH]c(=O)c1 [Example 34, 4-[(3R)-3-methylmorpholin-4-yl]-6-[(2S)-2-(trifluoromethyl)pyrrolidin-1-yl]-1H-pyridin-2-one]
0.03 |  |  | C[C@@H]1COCCN1c1cc(N2CCOCC23CCC3)[nH]c(=O)c1 [Example 42, 4-[(3R)-3-methylmorpholin-4-yl]-6-(8-oxa-5-azaspiro[3.5]nonan-5-yl)-1H-pyridin-2-one]
0.005 |  |  | C[C@@H]1COCCN1c1cc(N2CCN(C(=O)c3cncc(F)c3)CC2C(F)(F)F)[nH]c(=O)c1 (stereo partly drawn) [Example 46, 6-[4-(5-fluoropyridine-3-carbonyl)-2-(trifluoromethyl)piperazin-1-yl]-4-[(3R)-3-methylmorpholin-4-yl]-1H-pyridin-2-one]
0.03 |  |  | C[C@@H]1COCCN1c1cc(N2CCN(C)CC2C(F)(F)F)[nH]c(=O)c1 (stereo partly drawn) [Example 49, 4-[(3R)-3-methylmorpholin-4-yl]-6-[4-methyl-2-(trifluoromethyl)piperazin-1-yl]-1H-pyridin-2-one]
